Assay results: publication PMC5609876, “Metformin selectively targets redox control of complex I energy transduction” (Redox Biology, 2017)
Where two headings read alike, the source gives them in different places.

Experiments:
[1] = test system: T1, complex I; test: NADH oxidation in rat liver submitochondrial particles; format: biochemical
T1 construct: gene Ndufv1; submitochondrial particles from rat liver

[2] = target: T2, complex I; test: complex I NADH:paraquat electron transfer, microplate activity assay (ubiquinone replaced by paraquat); format: biochemical, Bos taurus
T2 construct: gene NDUFV1; MitoTox Complex I OXPHOS Activity Microplate Assay (ab109903)

[H]/N=C(/N)N/C(=N/[H])NCCc1ccccc1 [phenformin]
NADH oxidation in rat liver submitochondrial particles [1]: Effects of both phenformin and DG5 on NADH oxidation were observed at much lower concentrations than responses to metformin

[H]/N=C(/N)NCCCCCNC(=N)N [DG5]
IC50 [2]: 12 mM

CN(C)C(=N)N=C(N)N [metformin]
IC50 ([2]; read-out: IC50): 91 mM
